Here are results for 2 molecules from US12042500B2, “Mucoadhesive drug delivery system for ocular administration of fluoroquinolone antibiotics” (HYDERABAD EYE RESEARCH FOUNDATION, priority 2018, dated 2024).

The nature of series [1]: In vitro drug release study, Franz diffusion cell with dialysis membrane. As to conditions: PBS pH 7.4, 33±1° C., 2 mg drug in donor. Type of series: physicochemical. As to the method:
In vitro release of drugs was performed using Franz diffusion cell apparatus (Permegear Inc., USA). […] The donor compartment was loaded with 2 mg of drug containing polymeric hydrogel or standard drug solution or marketed formulation. […] Samples were analyzed using HPLC method described above.

For series [2], the system named is excised human cornea. The protocol:
HPLC analysis was performed using Shimadzu Prominence UFLC, LC-20 system (Shimadzu, Japan) with a C18 column (Shimpack GIST column, 5 μm, 4.6×250 mm). The mobile phase used for besifloxacin analysis comprised of a mixture of 0.5% triethylamine solution (pH adjusted to 3.0 with 10% ortho-phosphoric acid) and acetonitrile (ACN) (74:26, v/v) (Costa et al, 2014). […] The injection volume was 50 μl for all the standards and test solutions. The flow rate and column temperature were maintained at 1.0 ml/min and 25° C., respectively. […] The amount of drug release was determined using respective standard calibration curves.
Excised human cornea was washed with PBS and mounted between donor and receptor compartments with epithelial side facing donor chamber. Receptor medium contained PBS maintained at 37±1° C. temperature using heated water circulator unit. The donor compartment was charged with 0.4% of drug containing polymeric hydrogel, standard drug solution or marketed formulation. Samples (300 μl) were withdrawn from the receptor chamber at predetermined time intervals including 0.5, 1, 2, 4, 6, 12 and 24 h. Samples were analyzed by HPLC method described above. […] Corneal permeation parameters were calculated from cumulative amount of drug permeated vs. time profile. Flux (J) was calculated from the slope of the linear portion of cumulative amount of permeated vs. time profile. Lag time (ttag) was calculated by extrapolating the linear portion of the curve to time axis. Permeability coefficient (Kp) was calculated using Equation 1.

Series [3] concerns Staphylococcus aureus (ATCC 25923) infected human cornea. The experiment in a line: Antibacterial activity in ex vivo corneal infection model. Type of series: cell-based. As to conditions: infected cornea incubated 30 min with 0.4% formulation, then 24 h; 10^−7 dilution; n=3. The protocol: Human corneas were incubated in antibiotic free DMEM media overnight at 37° C. […] After 24 h incubation at 37° C., the infected corneas were washed again with PBS and used for further studies. The infection-free corneas were used as controls (Pinnock, et. al, 2017). Infected cornea was washed, and a metal ring was placed on the corneoscleral button, creating a watertight seal. Drug formulations (0.4%) were added to the center of the ring and incubated for 0.5 and 1.5 h at 37° C. Later, the corneas were washed thoroughly with PBS to remove the excess formulation and incubated for 24 h at 37° C. The cornea was then homogenized, and the resulting suspension was serially diluted. A 10 μl sample was spotted on agar plates at 10^−5, 10^−6, 10^−7, 10^−8 dilutions for colony enumeration. The colonies were counted visually and expressed in colony forming units (CFU) using Equation 2. The antibacterial activity of drugs loaded in hydrogel formulations was evaluated against Staphylococcus aureus (ATCC 25923) infected human cornea (n=3).

Marks after values point to notes of the source that are not given here.

With `N[C@@H]1CCCCN(c2c(F)cc3c(=O)c(C(=O)O)cn(C4CC4)c3c2Cl)C1` [Besifloxacin Std., besifloxacin], the “Time to 100% release / complete diffusion across the membrane” value in series [1] was at most 10 h. The Permeability coefficient in series [2] was 15.57 ×10^−3, cm^2/h. Moreover, in series [2] (human, 0.4 %), the Diffusion coefficient is reported as 21.34 ×10^−3, the Flux was 36.80 ± 13.99 μg/cm^2/h and the Lag time amounted to 1.22 ± 0.39 h. Moreover, in series [2] (human, 0.5 h, 0.4 %), the Corneal tissue concentration was 398±50 μg/gram of tissue. In series [2] (human, 24 h, 0.4 %), the Cumulative amount permeated was determined as 1267.42 ± 37.56 μg/cm^2 and the “Cumulative amount permeated across cornea” value worked out at 1267 ± 38 µg. In addition, the CFU/ml in series [3] is listed as 2.5 ± 0.82 CFU/ml (×10^9).
Regarding `C[C@H]1COc2c(N3CCN(C)CC3)c(F)cc3c(=O)c(C(=O)O)cn1c23` [Levofloxacin Std., levofloxacin], the CFU/ml in series [3] was 8.3 ± 5.10 CFU/ml (×10^9).
